Laboratory results taken from patent US12643903B2, “Bifunctional compounds for degradation of EGFR and related methods of use” (BeiGene, Ltd., priority 2020, dated 2026).

Experiments:
[1] = target: T1, EGFR (Homo sapiens, UniProt P00533, L858R/T790M); experiment: Cell Degradation 1: EGFR degradation in H1975 cells, HTRF assay; assay type: cell-based; conditions: 16 h treatment, EGFR degradation by HTRF
T1 construct: endogenous in cells; host or cells: H1975
Experimental: After 16 h treatment, add 100 μl 1×lysis buffer to each well; seal the plate and incubate 1 hour at room temperature on a plate shaker; Once the cells are lysed, 16 μL of cell lysate are transferred to a PE 384-well HTRF detection plate; 4 μL of pre-mixed HTRF antibodies are added to each well; Cover the plate with a plate sealer, spin 1000 rpm for 1 min, Incubate overnight at room temperature; Read on BMG PheraStar with HTRF protocol (337 nm-665 nm-620 nm).
(§1) The IC50 (DC50) value of a compound can be obtained by fitting the following equation Y=Bottom+(TOP−Bottom)/(1+((IC50/X)^hillslope))
(§2) Wherein, X and Y are known values, and IC50, Hillslope, Top and Bottom are the parameters obtained by fitting with software. Y is the inhibition percentage (calculated from the equation), X is the concentration of the compound; IC50 is the concentration of the compound when the 50% inhibition is reached. The smaller the IC50 value is, the stronger the inhibitory ability of the compound is. Vice versa, the higher the IC50 value is, the weaker the ability the inhibitory ability of the compound is; Hillslope represents the slope of the fitted curve, generally around 1*; Bottom represents the minimum value of the curve obtained by data fitting, which is generally 0%±20%; Top represents the maximum value of the curve obtained by data fitting, which is generally 100%±20%. The experimental data were fitted by calculating and analyzing with Dotmatics data analysis software.

[2] = target: T2, EGFR (Homo sapiens, UniProt P00533, DEL746-750); experiment: Cell Degradation 2: EGFR degradation in HCC827 cells, HTRF assay; assay type: cell-based; conditions: 16 h treatment, EGFR degradation by HTRF
T2 construct: endogenous in cells; host or cells: HCC827
T2 sequence (P00533 with tags, fused parts or gaps DEL746-750): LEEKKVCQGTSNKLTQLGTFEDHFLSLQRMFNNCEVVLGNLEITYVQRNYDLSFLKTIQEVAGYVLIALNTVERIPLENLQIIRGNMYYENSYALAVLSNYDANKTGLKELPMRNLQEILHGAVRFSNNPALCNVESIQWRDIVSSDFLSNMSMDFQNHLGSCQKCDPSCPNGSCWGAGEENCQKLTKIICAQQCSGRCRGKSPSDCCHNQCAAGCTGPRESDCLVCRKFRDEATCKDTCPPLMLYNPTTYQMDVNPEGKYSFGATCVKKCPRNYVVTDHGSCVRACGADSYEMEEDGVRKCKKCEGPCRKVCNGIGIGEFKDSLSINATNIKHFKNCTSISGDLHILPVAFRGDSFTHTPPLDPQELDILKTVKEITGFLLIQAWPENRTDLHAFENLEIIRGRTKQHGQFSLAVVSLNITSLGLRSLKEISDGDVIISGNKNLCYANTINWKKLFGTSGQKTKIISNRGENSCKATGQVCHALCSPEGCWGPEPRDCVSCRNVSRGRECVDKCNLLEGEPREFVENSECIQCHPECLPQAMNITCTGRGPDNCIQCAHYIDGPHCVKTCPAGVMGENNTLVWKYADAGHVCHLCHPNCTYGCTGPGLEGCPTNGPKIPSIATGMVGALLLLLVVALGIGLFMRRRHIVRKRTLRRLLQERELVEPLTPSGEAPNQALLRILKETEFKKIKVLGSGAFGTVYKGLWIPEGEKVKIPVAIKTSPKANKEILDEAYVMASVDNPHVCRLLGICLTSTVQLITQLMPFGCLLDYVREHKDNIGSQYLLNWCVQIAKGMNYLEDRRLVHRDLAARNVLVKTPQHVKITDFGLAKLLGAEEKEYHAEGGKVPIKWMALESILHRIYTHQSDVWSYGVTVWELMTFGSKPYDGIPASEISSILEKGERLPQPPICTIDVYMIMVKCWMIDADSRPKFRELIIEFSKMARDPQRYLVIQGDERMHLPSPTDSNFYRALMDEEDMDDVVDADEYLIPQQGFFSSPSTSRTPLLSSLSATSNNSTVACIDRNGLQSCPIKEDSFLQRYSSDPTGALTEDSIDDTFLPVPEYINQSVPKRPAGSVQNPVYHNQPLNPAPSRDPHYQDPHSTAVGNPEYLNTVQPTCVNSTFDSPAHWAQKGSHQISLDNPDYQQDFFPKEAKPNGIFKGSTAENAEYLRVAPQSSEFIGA
T2 sequence (Q96SW2 whole entry partner): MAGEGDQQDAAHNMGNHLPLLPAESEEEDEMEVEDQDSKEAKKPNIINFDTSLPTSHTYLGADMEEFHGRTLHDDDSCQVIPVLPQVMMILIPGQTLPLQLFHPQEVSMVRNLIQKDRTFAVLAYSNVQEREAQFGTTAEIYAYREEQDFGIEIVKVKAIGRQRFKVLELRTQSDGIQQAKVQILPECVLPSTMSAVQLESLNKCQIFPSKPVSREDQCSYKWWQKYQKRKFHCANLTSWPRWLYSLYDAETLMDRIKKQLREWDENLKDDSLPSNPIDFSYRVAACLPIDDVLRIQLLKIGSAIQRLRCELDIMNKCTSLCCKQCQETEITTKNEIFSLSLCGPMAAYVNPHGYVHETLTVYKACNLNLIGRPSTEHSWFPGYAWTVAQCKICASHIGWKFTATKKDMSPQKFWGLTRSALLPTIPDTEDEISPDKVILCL
Experimental: After 16 h treatment, add 100 μl 1×lysis buffer to each well; seal the plate and incubate 1 hour at room temperature on a plate shaker; Once the cells are lysed, 16 μl diluted (2 μL to 14 μl 1× lysisi buffer) cell lysate are transferred to a PE 384-well HTRF detection plate; 4 μL of pre-mixed HTRF antibodies are added to each well; Cover the plate with a plate sealer, spin 1000 rpm for 1 min, Incubate overnight at room temperature; Read on BMG PheraStar with HTRF protocol (337 nm-665 nm-620 nm).
as §1, §2

T1 sequence (P00533 25-1210 T790M/L858R): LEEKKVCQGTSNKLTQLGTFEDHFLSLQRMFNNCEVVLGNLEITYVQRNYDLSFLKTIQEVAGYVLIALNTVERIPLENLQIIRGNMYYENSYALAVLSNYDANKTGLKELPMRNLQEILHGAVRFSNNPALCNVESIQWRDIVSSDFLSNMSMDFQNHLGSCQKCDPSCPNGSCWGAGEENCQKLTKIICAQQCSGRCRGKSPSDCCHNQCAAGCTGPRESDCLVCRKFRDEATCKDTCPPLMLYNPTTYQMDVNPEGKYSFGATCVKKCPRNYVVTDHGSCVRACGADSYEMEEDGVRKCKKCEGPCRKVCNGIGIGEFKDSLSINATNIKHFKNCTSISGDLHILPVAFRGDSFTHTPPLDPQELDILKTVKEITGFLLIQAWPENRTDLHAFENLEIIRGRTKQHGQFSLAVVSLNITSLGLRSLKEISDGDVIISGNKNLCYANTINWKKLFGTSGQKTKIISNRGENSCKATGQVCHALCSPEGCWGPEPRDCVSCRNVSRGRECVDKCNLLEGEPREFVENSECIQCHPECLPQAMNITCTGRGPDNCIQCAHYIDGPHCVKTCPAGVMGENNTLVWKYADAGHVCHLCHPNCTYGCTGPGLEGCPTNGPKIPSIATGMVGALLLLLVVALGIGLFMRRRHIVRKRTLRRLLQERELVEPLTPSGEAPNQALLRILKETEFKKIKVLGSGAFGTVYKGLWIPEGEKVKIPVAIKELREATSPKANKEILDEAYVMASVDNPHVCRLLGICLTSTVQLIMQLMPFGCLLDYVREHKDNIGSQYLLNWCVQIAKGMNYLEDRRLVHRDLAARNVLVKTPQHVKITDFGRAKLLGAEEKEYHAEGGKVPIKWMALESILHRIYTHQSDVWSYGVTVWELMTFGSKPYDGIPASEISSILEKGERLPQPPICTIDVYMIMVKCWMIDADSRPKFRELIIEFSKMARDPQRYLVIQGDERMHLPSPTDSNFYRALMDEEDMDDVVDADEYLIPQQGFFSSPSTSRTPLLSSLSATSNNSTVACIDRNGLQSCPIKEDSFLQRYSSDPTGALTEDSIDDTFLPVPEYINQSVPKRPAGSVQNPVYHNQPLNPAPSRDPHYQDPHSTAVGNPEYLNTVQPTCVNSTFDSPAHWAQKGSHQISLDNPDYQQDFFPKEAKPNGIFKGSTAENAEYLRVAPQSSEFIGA

| DC50 [1] [nM] | DC50 [2] [nM] | SMILES |
| --- | --- | --- |
| 7 | 3.5 | CS(=O)(=O)N1CCc2cccc(Nc3nc(Nc4ccc(N5CCC(N6CCN(CCC7CCN(c8ccc9c(c8)C(=O)N(C8CCC(=O)NC8=O)C9=O)CC7)CC6)CC5)c5c4OCC5)ncc3Cl)c21 (stereo not drawn) [Example 52, 5-(4-(2-(4-(1-(7-((5-chloro-4-((1-(methylsulfonyl)indolin-7-yl)amino)pyrimidin-2-yl)amino)-2,3-dihydrobenzofuran-4-yl)piperidin-4-yl)piperazin-1-yl)ethyl)piperidin-1-yl)-2-(2,6-dioxopiperidin-3-yl)isoindoline-1,3-dione] |
| 3.9 | > 10000 | COc1cc(Nc2nc(Nc3cccc4c3N(S(C)(=O)=O)CC4)c3cc[nH]c3n2)ccc1N1CCC(N2CCN(C(=O)[C@@H]3CCN(c4ccc5c(c4)C(=O)N(C4CCC(=O)NC4=O)C5=O)C3)CC2)CC1 (stereo partly drawn) [Example 75, 2-(2,6-dioxopiperidin-3-yl)-5-((R)-3-(4-(1-(2-methoxy-4-((4-((1-(methylsulfonyl)indolin-7-yl)amino)-7H-pyrrolo[2,3-d]pyrimidin-2-yl)amino)phenyl)piperidin-4-yl)piperazine-1-carbonyl)pyrrolidin-1-yl)isoindoline-1,3-dione] |
| 14.1 | 10.8 | CS(=O)(=O)N1CCc2cccc(Nc3nc(Nc4ccc(N5CCC(N6CCN(CCC7CCN(c8ccc9c(c8)CN(C8CCC(=O)NC8=O)C9=O)CC7)CC6)CC5)c(F)c4)nc4[nH]ccc34)c21 (stereo not drawn) [Example 18, 3-(5-(4-(2-(4-(1-(2-fluoro-4-((4-((1-(methylsulfonyl)indolin-7-yl)amino)-7H-pyrrolo[2,3-d]pyrimidin-2-yl)amino)phenyl)piperidin-4-yl)piperazin-1-yl)ethyl)piperidin-1-yl)-1-oxoisoindolin-2-yl)piperidine-2,6-dione] |
| 20.7 | 16.7 | COc1cc(N2CCC(N3CCN(CCC4CCN(c5ccc(C6CCC(=O)NC6=O)cc5)CC4)CC3)CC2)c(C)cc1Nc1ncc(Br)c(Nc2cccc3c2N(S(C)(=O)=O)CC3)n1 (stereo not drawn) [Example 41, 3-(4-(4-(2-(4-(1-(4-((5-bromo-4-((1-(methylsulfonyl)indolin-7-yl)amino)pyrimidin-2-yl)amino)-5-methoxy-2-methylphenyl)piperidin-4-yl)piperazin-1-yl)ethyl)piperidin-1-yl)phenyl)piperidine-2,6-dione] |
| 49.1 | 11.1 | COc1cc(N2CCC(N3CCN(C(=O)C4CCN(CC5CCN(c6ccc7c(c6)C(=O)N(C6CCC(=O)NC6=O)C7=O)CC5)CC4)CC3)CC2)c(C)cc1Nc1ncc(Br)c(Nc2cccc3c2N(S(C)(=O)=O)CC3)n1 (stereo not drawn) [Example 43, 5-(4-((4-(4-(1-(4-((5-bromo-4-((1-(methylsulfonyl)indolin-7-yl)amino)pyrimidin-2-yl)amino)-5-methoxy-2-methylphenyl)piperidin-4-yl)piperazine-1-carbonyl)piperidin-1-yl)methyl)piperidin-1-yl)-2-(2,6-dioxopiperidin-3-yl)isoindoline-1,3-dione] |
| 10.8 | 29.8 | CS(=O)(=O)N1CCc2cccc(Nc3nc(Nc4ccc(N5CCC(N6CCN(CCc7ccc(C8CCC(=O)NC8=O)c(F)c7F)CC6)CC5)c(F)c4)nc4[nH]ccc34)c21 (stereo not drawn) [Example 69, 3-(2,3-difluoro-4-(2-(4-(1-(2-fluoro-4-((4-((1-(methylsulfonyl)indolin-7-yl)amino)-7H-pyrrolo[2,3-d]pyrimidin-2-yl)amino)phenyl)piperidin-4-yl)piperazin-1-yl)ethyl)phenyl)piperidine-2,6-dione] |
| 10.9 | 4.6 | COc1cc(N2CCC(N3CCN(CCCC4CN(c5ccc6c(c5)C(=O)N(C5CCC(=O)NC5=O)C6=O)C4)CC3)CC2)c(C)cc1Nc1ncc(Br)c(Nc2cccc3c2N(S(C)(=O)=O)CC3)n1 (stereo not drawn) [Example 44, 5-(3-(3-(4-(1-(4-((5-bromo-4-((1-(methylsulfonyl)indolin-7-yl)amino)pyrimidin-2-yl)amino)-5-methoxy-2-methylphenyl)piperidin-4-yl)piperazin-1-yl)propyl)azetidin-1-yl)-2-(2,6-dioxopiperidin-3-yl)isoindoline-1,3-done] |
| 9.6 | 30.8 | CS(=O)(=O)N1CCc2cccc(Nc3nc(Nc4ccc(N5CCC(N6CCN(CCC7CCN(c8ccc9c(c8)C(=O)N(C8CCC(=O)NC8=O)C9=O)CC7)CC6)CC5)c(F)c4)nc4[nH]ccc34)c21 (stereo not drawn) [Example 17, 2-(2,6-dioxopiperidin-3-yl)-5-(4-(2-(4-(1-(2-fluoro-4-((4-((1-(methylsulfonyl)indolin-7-yl)amino)-7H-pyrrolo[2,3-d]pyrimidin-2-yl)amino)phenyl)piperidin-4-yl)piperazin-1-yl)ethyl)piperidin-1-yl)isoindoline-1,3-dione] |
| 13.5 | 4.9 | COc1cc(N2CCC(N3CCN(C(=O)CCN4CCN(c5ccc6c(c5)C(=O)N(C5CCC(=O)NC5=O)C6=O)CC4)CC3)CC2)c(C)cc1Nc1ncc(Br)c(Nc2cccc3c2N(S(C)(=O)=O)CC3)n1 (stereo not drawn) [Example 42, 5-(4-(3-(4-(1-(4-((5-bromo-4-((1-(methylsulfonyl)indolin-7-yl)amino)pyrimidin-2-yl)amino)-5-methoxy-2-methylphenyl)piperidin-4-yl)piperazin-1-yl)-3-oxopropyl)piperazin-1-yl)-2-(2,6-dioxopiperidin-3-yl)isoindoline-1,3-dione] |
| 3.4 | 1170 | COc1cc(Nc2nc(Nc3cccc4c3N(S(C)(=O)=O)CC4)c3cc[nH]c3n2)ccc1N1CCC(N2CCN(C(=O)C3CN(c4ccc5c(c4)C(=O)N(C4CCC(=O)NC4=O)C5=O)C3)CC2)CC1 (stereo not drawn) [Example 73, 2-(2,6-dioxopiperidin-3-yl)-5-(3-(4-(1-(2-methoxy-4-((4-((1-(methylsulfonyl)indolin-7-yl)amino)-7H-pyrrolo[2,3-d]pyrimidin-2-yl)amino)phenyl)piperidin-4-yl)piperazine-1-carbonyl)azetidin-1-yl)isoindoline-1,3-dione] |
| 9.3 | > 10000 | CS(=O)(=O)N1CCc2cccc(Nc3nc(Nc4ccc(N5CCC(N6CCN(CCC7CCN(c8ccc(C9CCC(=O)NC9=O)c(C#N)c8)CC7)CC6)CC5)c(F)c4)nc4[nH]ccc34)c21 (stereo not drawn) [Example 10, 2-(2,6-dioxopiperidin-3-yl)-5-(4-(2-(4-(1-(2-fluoro-4-((4-((1-(methylsulfonyl)indolin-7-yl)amino)-7H-pyrrolo[2,3-d]pyrimidin-2-yl)amino)phenyl)piperidin-4-yl)piperazin-1-yl)ethyl)piperidin-1-yl)benzonitrile] |
| 7.4 | 29.3 | CN(CCN1CCN(C2CCN(c3ccc(Nc4nc(Nc5cccc6c5N(S(C)(=O)=O)CC6)c5cc[nH]c5n4)cc3F)CC2)CC1)c1cccc(C2CCC(=O)NC2=O)c1 (stereo not drawn) [Example 6, 3-(3-((2-(4-(1-(2-fluoro-4-((4-((1-(methylsulfonyl)indolin-7-yl)amino)-7H-pyrrolo[2,3-d]pyrimidin-2-yl)amino)phenyl)piperidin-4-yl)piperazin-1-yl)ethyl)(methyl)amino)phenyl)piperidine-2,6-dione] |
| 9.9 | 24.7 | CS(=O)(=O)N1CCc2cccc(Nc3nc(Nc4ccc(N5CCC(N6CCN(CCc7ccc(C8CCC(=O)NC8=O)cc7)CC6)CC5)c(F)c4)nc4[nH]ccc34)c21 (stereo not drawn) [Example 1, 3-(4-(2-(4-(1-(2-fluoro-4-((4-((1-(methylsulfonyl)indolin-7-yl)amino)-7H-pyrrolo[2,3-d]pyrimidin-2-yl)amino)phenyl)piperidin-4-yl)piperazin-1-yl)ethyl)phenyl)piperidine-2,6-dione] |
| 12.4 | 33.5 | CS(=O)(=O)N1CCc2cccc(Nc3nc(Nc4ccc(N5CCC(N6CCN(C(=O)CC7CCN(c8ccc(C9CCC(=O)NC9=O)cc8)CC7)CC6)CC5)c(F)c4)nc4[nH]ccc34)c21 (stereo not drawn) [Example 12, 3-(4-(4-(2-(4-(1-(2-fluoro-4-((4-((1-(methylsulfonyl)indolin-7-yl)amino)-7H-pyrrolo[2,3-d]pyrimidin-2-yl)amino)phenyl)piperidin-4-yl)piperazin-1-yl)-2-oxoethyl)piperidin-1-yl)phenyl)piperidine-2,6-dione] |
| 23.7 | 123 | CS(=O)(=O)N1CCc2cccc(Nc3nc(Nc4ccc(N5CCC(N6CCN(C(=O)CCN7CCC(c8ccc(C9CCC(=O)NC9=O)cc8)CC7)CC6)CC5)c(F)c4)nc4[nH]ccc34)c21 (stereo not drawn) [Example 11, 3-(4-(1-(3-(4-(1-(2-fluoro-4-((4-((1-(methylsulfonyl)indolin-7-yl)amino)-7H-pyrrolo[2,3-d]pyrimidin-2-yl)amino)phenyl)piperidin-4-yl)piperazin-1-yl)-3-oxopropyl)piperidin-4-yl)phenyl)piperidine-2,6-dione] |
